Measurements published in patent EP2823816A1, “Inhibitors of Neuropilin and use thereof for the treatment of Neuropilin-related diseases” (Tragex Pharma, priority 2013, dated 2015).

Assays:
Experiment in all cases: WST-1 proliferation / cytotoxic test
Format in all cases: cell-based
Granta-519 = settings: Homo sapiens, Mantle cell lymphoma, wst-1 cytotoxic test, 72 h
Method: (§1) After observation of cells under the microscope, old media were removed and the adherent cells washed gently twice with PBS (Phosphate Buffer Saline, -Ca^2+, -Mg^2+, Lonza cat n°: 17-512F/12). All cells were detached with 3 ml of trypsin/EDTA (chelator of calcium and magnesium ions) (Lonza), incubated for 5 min at 37°C, and examined using a microscope to ensure that the cells were detached and floating. Then, 3 ml TNS (Trypsin Neutralizing Solution, Lonza, France, cat n° CC-5002) or of culture medium were added to inactivate the trypsin, and the cell suspension was transferred in a falcon tube and centrifuged for 7 min at 1400 rpm. The supernatant was removed and the cell pellet resuspended in […] of culture medium. 50 µL of this solution were transferred in 20 µL of isotonic solution and the cells were counted by count cellular (Beckman Coulter). At day 0, 200 µL of cellular suspension (3.10^3 cells/well for the HUVEC cells, breast cancer cells (MDA-MB-231 1.10^4 cells/well, MDA-MB-468 2.10^4 cells/well,); cervical cancer cells (HeLa 5.000 cells/well); colon cancer cells (HCT-116 5.10^3 cells/well, HCT-29 1.1.10^4 cells/well); pancreas cancer cells (Panc-10.5 1.5.10^4 cells/well); brain cancer cells (U87 5.10^3 cells/well, SH-SYSY 8.10^4 cells/well); Lung cancer cells (A 549 1.10^4 cells/well, NCI-H460 1.10^4 cells/well); fibrosarcoma cells (HT 1080 8.10^3 cells/well); Burkitt's lymphoma cells (DAUDI 3.10^4 cells/well); acute lymphoblastic leukemia cells (CEM 3.10^4 cells/well); chronic myeloid leukemia cells (ERY 5.10^4 cells/well); mantle cell lymphoma (GRANTA 1.10^5 cells/well); B lymphoma cells (VAL 1.10^5 cells/well)) were then plated on 96 well plates and incubated at 37°C in a humidified atmosphere of 5% CO2 for 24 h.
(§2) At day 1, the compound 1 of the invention was added at increasing concentrations (0.1 - 10 µM) in the wells and plates were incubated at 37°C in a humidified atmosphere of 5% CO2 for 72 h.
(§3) The cell proliferation WST-1 assay is a colorimetric assay for the quantification of cell proliferation and viability, based on the enzymatic cleavage of the tetrazolium salt WST-1 added to the culture medium, to a water soluble colored formazan dye, detected by absorbance at 450 nm, by mitochondrial succinate-tetrazoliumreductase in viable cells. An augmentation in enzyme activity will then lead to an increase in the amount of formazan dye formed, which directly correlates to the number of metabolically active cells in the culture.
(§4) After an incubation period of 72 h, at day 4, were prepared the 19 mL medium with reagent WST-1 1mL ([…]). The medium was removed from the 96 microplate and 200 µL of solution WST-1/medium were added for each well. The cells were incubated at 37°C in a humidified atmosphere of 5% CO2 for 1h30 and the absorbance at 450-655 nm was measured by Microplate Manager 5.2 (Bio-Rad).

U87 = settings: Homo sapiens, U-87 MG, Brain, wst-1 cytotoxic test, 72 h
Method: as §1, §2, §3, §4

CEM = settings: Homo sapiens, CCRF-CEM, Acute lymphoblastic leukemia, wst-1 cytotoxic test, 72 h
Method: as §1, §2, §3, §4

VAL = settings: Homo sapiens, B lymphoma, wst-1 cytotoxic test, 72 h
Method: as §1, §2, §3, §4

DAUDI = settings: Homo sapiens, Burkitt's lymphoma, wst-1 cytotoxic test, 72 h
Method: as §1, §2, §3, §4

HT-1080 = settings: Homo sapiens, Fibrosarcoma, wst-1 cytotoxic test, 72 h
Method: as §1, §2, §3, §4

Panc-10.5 = settings: Homo sapiens, Pancreas, wst-1 cytotoxic test, 72 h
Method: as §1, §2, §3, §4

HeLa = settings: Homo sapiens, Cervical, wst-1 cytotoxic test, 72 h
Method: as §1, §2, §3, §4

SH-SY5Y = settings: Homo sapiens, Brain, wst-1 cytotoxic test, 72 h
Method: as §1, §2, §3, §4

HCT-116 = settings: Homo sapiens, Colon, wst-1 cytotoxic test, 72 h
Method: as §1, §2, §3, §4

NCI-H460 = settings: Homo sapiens, Lung, wst-1 cytotoxic test, 72 h
Method: as §1, §2, §3, §4

HT-29 = settings: Homo sapiens, Colon, wst-1 cytotoxic test, 72 h
Method: as §1, §2, §3, §4

MDA-MB-468 = settings: Homo sapiens, Breast, wst-1 cytotoxic test, 72 h
Method: as §1, §2, §3, §4

A549 = settings: Homo sapiens, Lung, wst-1 cytotoxic test, 72 h
Method: as §1, §2, §3, §4

ERY-1 = settings: Homo sapiens, Chronic myeloid leukemia, wst-1 cytotoxic test, 72 h
Method: as §1, §2, §3, §4

CCOc1ccccc1NC(=O)c1ccc(C)c(S(=O)(=O)Nc2ccc(C)cc2)c1 [Compound 1, N-(2-ethoxyphenyl)-4-methyl-3-(N-(p-tolyl)sulfamoyl)benzamide]
IC50 (Granta-519): 500 ± 70 nM | IC50 (U87): 500 ± 20 nM | IC50 (CEM): 100 ± 80 nM | IC50 (VAL): 1000 ± 60 nM | IC50 (DAUDI): 500 ± 20 nM | IC50 (HT-1080): 300 ± 10 nM | IC50 (Panc-10.5): 500 ± 40 nM | IC50 (HeLa): 200 ± 60 nM | IC50 (SH-SY5Y): 100 ± 20 nM | IC50 (HCT-116): 500 ± 70 nM | IC50 (NCI-H460): 500 ± 70 nM | IC50 (HT-29): 500 ± 10 nM | IC50 (MDA-MB-468): 500 ± 60 nM | IC50 (A549): 400 ± 30 nM | IC50 (ERY-1): 200 ± 30 nM
